Source: patent US11911349B2, “Rapidly improving vascular conditions by administering vitamin K” (NATTOPHARMA AS, priority 2018, dated 2024)

How the values were obtained:
[1] = mouse, in vivo
[2] = system: endothelial nitric oxide synthase (eNOS)-dependent nitric oxide (NO) production; experiment: Example 3: endothelial NO production in ex vivo aorta by EPR spin-trapping; settings: 0.05 mg/kg b.w./day, vs untreated age-matched mice
Text: For measurements of endothelial nitric oxide synthase (eNOS)-dependent nitric oxide (NO) production, EPR spin-trapping with diethyldithiocarbamic acid sodium salt (DETC) was used ex vivo, as described in Przyborowski K, Proniewski B, Czarny J, Smeda M, Sitek B, Zakrzewska A, et al. Vascular Nitric Oxide-Superoxide Balance and Thrombus Formation after Acute Exercise. Med Sci Sport Exerc 2018:1. doi:10.1249/MSS.0000000000001589, with minor modifications. Isolated aorta cleared from surrounding tissue was opened longitudinally and preincubated with 10 μM L-NIL (N6-(1-Iminoethyl)-lysine, hydrochloride) in Krebs-HEPES buffer for 30 minutes at 37° C. in a well of a 48-well plate. Next, 250 μL of Fe(DETC)2 colloid was added and aorta was stimulated with calcium ionophore A23187 (the final concentration was 1 μM) and subsequently, incubated for 90 minutes at 37° C. Finally, aorta was weighed and frozen in liquid nitrogen (suspended in fresh buffer) into the middle of a 400 μL column of Krebs-Hepes buffer and stored at −80° C. until measured. EPR spectra were obtained using an X-band EPR spectrometer (EMX Plus, Bruker, Germany), equipped with a rectangular resonator cavity H102. Signals were quantified by measuring the total amplitude of the NO—Fe(DETC)2 after correction of baseline. The quantitative results of NO production assessed by EPR were expressed in AU/mg of tissue.

[3] = system: ApoE/LDLR−/− mice; experiment: Example 2: nitrite and nitrate concentration in plasma (HPLC, ENO-20); type: in vivo; settings: two months
Procedure: Blood samples were collected from heart into test tubes containing additional anticoagulant and centrifuged at 1000 g for 10 min at 4° C. The samples were used for HPLC measurement of nitrate (NO3−) and nitrite (NO2−) concentrations in plasma by an ENO-20 NOx Analyzer.

[4] = system: ApoE/LDLR−/− mice; experiment: Example 2: histological assessment of plaque size, composition and vessel wall area in BCA; type: in vivo; settings: two months
Text: For the determination of atherosclerotic plaque area and composition BCA was dissected, fixed in 4% buffered formalin and embedded in paraffin. 5 μm-thick serial sections of BCA were collected from proximal, middle and distal parts of artery. Originally developed staining with Unna's orcein combined with Martius, Scarlet and Blue trichrome (OMSB), was applied on every tenth section (50 μm interval between each section) for visualization of collagen, elastin, fibrin, red blood cells and vascular smooth muscle cells within atherosclerotic plaque. The areas of particular components of atherosclerotic plaque as well as artery lumen and wall were determined after Columbus-based software processing (FIG. 1B) using a previously developed algorithm [Gajda M, Jasztal A, Banasik T, Jasek-Gajda E, Chlopicki S. Combined orcein and martius scarlet blue (OMSB) staining for qualitative and quantitative analyses of atherosclerotic plaques in brachiocephalic arteries in apoE/LDLR−/− mice. Histochem Cell Biol 2017. doi:10.1007/s00418-017-1538-8.].

[5] = system: ApoE/LDLR−/− mice; experiment: Example 3: histological assessment of area and composition of atherosclerotic plaque in BCA, older mice; type: in vivo; settings: eight weeks; for decrease in vessel wall area (VWA): 24-week-old mice
Text: For the determination of atherosclerotic plaque area and composition isolated brachiocephalic artery (BCA) was dissected, fixed in 4% buffered formalin, and embedded in paraffin. 5 μm-thick serial sections of BCA were collected from the proximal to distal part of the artery. Staining with Unna's orcein combined with Martius, Scarlet and Blue trichrome (OMSB) was applied on every tenth section (50 μm interval between each section) for quantitative analysis of atherosclerotic plaques. The areas of particular components of atherosclerotic plaque as well as artery lumen and wall were determined after Columbus-based software processing (FIG. 9) using specially-designed algorithm as described in Gajda M, Jasztal A, Banasik T, Jasek-Gajda E, Chlopicki S. Combined orcein and martius scarlet blue (OMSB) staining for qualitative and quantitative analyses of atherosclerotic plaques in brachiocephalic arteries in apoE/LDLR−/− mice. Histochem Cell Biol 2017. doi:10.1007/s00418-017-1538-8. The parameters analyzed include vessel wall area (VWA), internal vessel area (IVA=plaque area+lumen area), plaque area (expressed as percent of internal wall area: plaque/IWA), and lumen area (expressed as percent of internal wall area: lumen/IWA).

## CC(C)=CCC/C(C)=C/CC/C(C)=C/CC/C(C)=C/CC/C(C)=C/CC/C(C)=C/CC/C(C)=C/CC1=C(C)C(=O)c2ccccc2C1=O [MK-7, menaquinone-7]
[1]
  K1 2,3-epoxide plasma concentration: tent to decrease
  vitamin K1 plasma concentration: tent to decrease
[1]; 5 mg/kg/day
  concentration of MK4 2,3-epoxide in plasma: maintained at similar level
  plasma concentration of K2 (MK-7): dose-dependent increase
  plasma concentration of MK-4: dose-dependent increase
[2]
  nitric oxide production in ex vivo aorta measured by EPR: increased
[3]; 0.03 mg/kg b.w./day
  concentration of NO3− in plasma: did not change significantly
[3]; 10 mg/kg b.w./day
  concentration of NO3− in plasma: did not change significantly
[4]; high dose 10 mg/kg b.w./day
  content of collagen in plaque, treated vs untreated: lack of differences
  decrease in lipid core expressed as percent of plaque: about 17%
  decrease in vessel wall area (VWA) of BCA: about 5%
  effect on plaque size: did not result in a beneficial effect
  lumen area expressed as percent of IWA: did not change
  plaque area expressed as percent of IWA: did not change
[4]; low dose 0.03 mg/kg b.w./day
  content of collagen in plaque, treated vs untreated: lack of differences
  decrease in lipid core expressed as percent of plaque: about 17%
  decrease in vessel wall area (VWA) of BCA: about 5%
  effect on plaque size: did not result in a beneficial effect
  lumen area expressed as percent of IWA: did not change
  plaque area expressed as percent of IWA: did not change
[4]; lower dose 0.03 mg/kg b.w./day, not visible for entire vessel
  internal wall area (IWA): decreased only in the middle part of the vessel
[5]; high dose 10 mg/kg b.w./day
  lumen area expressed as percent of IWA: did not change
  plaque area expressed as percent of IWA: did not change
  plaque size compared with non-treated mice: not different
  decrease in vessel wall area (VWA): about 5%
[5]; low dose 0.03 mg/kg b.w./day
  lumen area expressed as percent of IWA: did not change
  plaque area expressed as percent of IWA: did not change
  plaque size compared with non-treated mice: not different
  decrease in vessel wall area (VWA): about 5%
[5]; lower dose, data not shown, not visible for entire vessel
  internal wall area (IWA): decreased only in the middle part of the vessel
